Test results as given in US4876284A, “1-alkyl-2-aminotetralin derivatives” (Per Arvid Emil Carlsson, priority 1981, dated 1989).
Entries after “also recorded” stand apart in the source; their conditions may differ.

Experiments:
[1] = system: brain DA synthesis rate; assay: Formation of Dopa in rat brain regions (non-pretreated rats, NSD 1015); format: in vivo; design: formation of Dopa, Limbic forebrain / formation of Dopa, Striatum / formation of Dopa, Diencephalon / formation of Dopa, Brain-stem: unit not given here; settings: for formation of Dopa, Brain-stem / formation of Dopa, Diencephalon / formation of Dopa, Hemispheral (cortical) parts / formation of Dopa, Limbic forebrain / formation of Dopa, Striatum: mean ± sem
Procedure: (§1) Immediately thereafter the animals were removed from the boxes. Part of
(§2) the animals were injected with NSD 1015 (100 mg/kg i.p.) and after a
(§3) further 30 min they were killed, the brains rapidly dissected and taken
(§4) for determination of the Dopa and 5HTP levels in different areas of the […]

[2] = system: brain 5-HT synthesis rate; assay: Formation of 5-hydroxytryptophan in rat brain regions (non-pretreated rats, NSD 1015); format: in vivo; design: formation of 5-hydroxytryptophan, Limbic forebrain / formation of 5-hydroxytryptophan, Striatum / formation of 5-hydroxytryptophan, Diencephalon / formation of 5-hydroxytryptophan, Brain-stem: unit not given here; settings: for formation of 5-hydroxytryptophan, Brain-stem / formation of 5-hydroxytryptophan, Diencephalon / formation of 5-hydroxytryptophan, Hemispheral (cortical) parts / formation of 5-hydroxytryptophan, Limbic forebrain / formation of 5-hydroxytryptophan, Striatum: mean ± sem
Procedure: as §1, §2, §3, §4

[3] = system: postsynaptic DA receptors; assay: Antagonism of the reserpine plus α-methyl-para-tyrosine-induced immobility (neuroleptic syndrome) in rats; motor activity; settings: for Motor activity: reserpine 10 mg/kg + α-methyl-para-tyrosine 250 mg/kg i.p., means ± s.e.m.; for motor response / postsynaptic DA-receptor stimulatory effects: comparative study, Table II, s.c.; for antagonism of the reserpine-induced syndrome / behaviour elicited / postsynaptic DA-receptor stimulation: reserpine and α-methyl-para-tyrosine pretreated rats
[4] = system: DA autoreceptors; assay: Spontaneous locomotor activity in non-pretreated rats; format: in vivo, rat; settings: for Locomotor activity / effect on locomotor activity, in words: non-pretreated rats
Procedure: Untreated animals exposed to a new environment display an initial high motor activity which then gradually declines over a period of time. Administration of DA-receptor agonists (e.g. apomorphine) in doses where preferential autoreceptor stimulation is likely to occur, causes a depression of the spontaneous motility mentioned above, considered to be due to the DA autoreceptor-medicated attenuation of central DA transmission.
Rats (150-300 g) were injected subcutaneously with compound 2,5-OH-DPAT or apomorphine and after 5 minutes they were individually placed in motility boxes ("M/P 40 Fc Electronic Motility Meter". Motron Products, Stockholm) and the motor activity (0-30 min) was quantified. […] These findings are in congruence with the results obtained with the selective DA-autoreceptor agonist 3-PPP [S. Hjorth t al., Life Sciences, 28, 1225 (1981)] but in sharp contrast to the results obtained with 5-OH-DPAT and apomorphine (Table III).
Non-pretreated rats were given compound -2 (0.0625-16.0 mg/kg),
5OH--2-(di-n-propylamino) tetralin (5OH--DPAT; 0.0125-0.05 mg/kg,
apomorphine (0.1-1.0 mg/kg) or saline subcutaneously. Five minutes later
they were placed individually into motility meters and the locomotor

[5] = system: central DA-receptor (pre- and/or postsynaptic); assay: Rat-brain in-vivo tyrosine hydroxylation: Dopa accumulation after NSD 1015 in reserpine-pretreated rats; settings: for Dopa-accumulation; ED50, Limbic / Dopa-accumulation; ED50, Limbic (class symbol): limbic forebrain; for Dopa-accumulation; ED50, Limbic / Dopa-accumulation; ED50, Striatum / Dopa-accumulation; ED50, Limbic (class symbol) / biochemical activity (Dopa accumulation), in words / Dopa-accumulation; ED50, Striatum (class symbol): reserpine-pretreated rats; for Dopa-accumulation; ED50, Limbic / Dopa-accumulation; ED50, Striatum: half-maximal decrease in Dopa level; for Dopa-accumulation; ED50, Limbic / Dopa-accumulation; ED50, Striatum / Dopa-accumulation; ED50, Limbic (class symbol) / Dopa-accumulation; ED50, Striatum (class symbol): s.c.; for biochemical activity (Dopa accumulation), in words: inactive even at 45 μmol/kg
Procedure: The compounds under evaluation were tested biochemically for central DA-receptor (pre- and/or postsynaptic) stimulating activity. The concept of this biochemical screening method is that a DA-receptor agonist will stimulate the receptor and through regulatory feedback systems effect a decline in tyrosine hydroxylase activity and thus a subsequent reduction in the synthesis rate for DA in the presynaptic neuron. Dopa formation, as determined after in-vivo inhibition of the aromatic L-amino acid decarboxylase with NSD 1015 (3-hydroxybenzyl-hydrazine hydrochloride), is taken as an indirect measure of DA synthesis rate.
Rats (150-300 g) pretreated with reserpine were given the compounds under evaluation. Gross behavioural observations (changes in motility, stereotypies etc.) were made in order to evaluate possible postsynaptic dopamine receptor activity. subsequent administration of NSD 1015, decapitation, brain dissection [corpora striata, limbic fore-brain and rest of the hemispheral parts (cortex)]homogenization, centrifugation, ion-exchange chromatography and spectro-fluorimetric measurements (all as described in detail by Wikstrom et al., in J. Med. Chem. 21, 864-867, 1978 and references cited therein), gave the actual Dopa levels.
Several doses (n=4-6) were tested in order to obtain dose-response curves for each compound and brain area. The dose of a compound producing a half-maximal decrease in the Dopa level in the rat brain part was then estimated. These values (ED50) are presented in Table I. (Simultaneous determination of the 5-HTP levels was also performed utilizing the same paradigm.)
^b Rats pretreated with reserpine (10 mg/kg i.p.; 18 h) were given th
compounds under evaluation. Fortyfive minutes later they were injected
with NSD 1015 (100 mg/kg i.p.) and after a further 30 min they were
decapitated, the brains rapidly dissected and taken for determination of
the Dopa and 5HTP levels in different areas of the brain. The dose of a
compound producing a halfmaximal decrease (ED50) in the Dopa level i
the rat brain part was then estimated from doseresponse curves comprising
4-6 dose levels. (For further details see the text and references).

[6] = system: central DA-receptor (pre- and/or postsynaptic); settings: reserpine-pretreated rats, s.c., cited from earlier work

## Br.CCCN(CCC)[C@H]1CCc2c(O)cccc2[C@H]1C (relative stereo) [Compound 2, cis-5-Hydroxy-1-methyl-2-(di-n-propylamino) tetralin hydrobromid]
[1]; 0.0625 mg/kg s.c.
  formation of Dopa, Brain-stem: 177 ± 10
  formation of Dopa, Diencephalon: 148 ± 5
  formation of Dopa, Hemispheral (cortical) parts: 66 ± 2
  formation of Dopa, Limbic forebrain: 114 ± 6
  formation of Dopa, Striatum: 65 ± 4
[1]; 0.25 mg/kg s.c.
  formation of Dopa, Brain-stem: 170 ± 6
  formation of Dopa, Diencephalon: 144 ± 2
  formation of Dopa, Hemispheral (cortical) parts: 63 ± 2
  formation of Dopa, Limbic forebrain: 116 ± 3
  formation of Dopa, Striatum: 71 ± 5
[1]; 1.0 mg/kg s.c.
  formation of Dopa, Brain-stem: 167 ± 8
  formation of Dopa, Diencephalon: 134 ± 7
  formation of Dopa, Hemispheral (cortical) parts: 60 ± 1
  formation of Dopa, Limbic forebrain: 107 ± 5
  formation of Dopa, Striatum: 75 ± 6
[1]; 4.0 mg/kg s.c.
  formation of Dopa, Brain-stem: 170 ± 5
  formation of Dopa, Diencephalon: 137 ± 3
  formation of Dopa, Hemispheral (cortical) parts: 59 ± 2
  formation of Dopa, Limbic forebrain: 113 ± 3
  formation of Dopa, Striatum: 72 ± 4
[1]; 16.0 mg/kg s.c.
  formation of Dopa, Brain-stem: 170 ± 8
  formation of Dopa, Diencephalon: 137 ± 5
  formation of Dopa, Hemispheral (cortical) parts: 59 ± 2
  formation of Dopa, Limbic forebrain: 108 ± 5
  formation of Dopa, Striatum: 73 ± 4
[1]; non-pretreated rats, s.c.
  effect on brain DA synthesis rate, in words: significant decrease in rate brain DA synthesis rate; also recorded: marked difference in response between the limbic forebrain and the striatal structures
[2]; 0.0625 mg/kg s.c.
  formation of 5-hydroxytryptophan, Brain-stem: 98 ± 4
  formation of 5-hydroxytryptophan, Diencephalon: 196 ± 8
  formation of 5-hydroxytryptophan, Hemispheral (cortical) parts: 40 ± 3
  formation of 5-hydroxytryptophan, Limbic forebrain: 314 ± 15
  formation of 5-hydroxytryptophan, Striatum: 458 ± 17
[2]; 0.25 mg/kg s.c.
  formation of 5-hydroxytryptophan, Brain-stem: 96 ± 11
  formation of 5-hydroxytryptophan, Diencephalon: 170 ± 9
  formation of 5-hydroxytryptophan, Hemispheral (cortical) parts: 46 ± 2
  formation of 5-hydroxytryptophan, Limbic forebrain: 305 ± 14
  formation of 5-hydroxytryptophan, Striatum: 448 ± 26
[2]; 1.0 mg/kg s.c.
  formation of 5-hydroxytryptophan, Brain-stem: 96 ± 7
  formation of 5-hydroxytryptophan, Diencephalon: 170 ± 11
  formation of 5-hydroxytryptophan, Hemispheral (cortical) parts: 43 ± 3
  formation of 5-hydroxytryptophan, Limbic forebrain: 291 ± 9
  formation of 5-hydroxytryptophan, Striatum: 420 ± 30
[2]; 4.0 mg/kg s.c.
  formation of 5-hydroxytryptophan, Brain-stem: 111 ± 8
  formation of 5-hydroxytryptophan, Diencephalon: 176 ± 10
  formation of 5-hydroxytryptophan, Hemispheral (cortical) parts: 47 ± 2
  formation of 5-hydroxytryptophan, Limbic forebrain: 267 ± 6
  formation of 5-hydroxytryptophan, Striatum: 479 ± 9
[2]; 16.0 mg/kg s.c.
  formation of 5-hydroxytryptophan, Brain-stem: 118 ± 4
  formation of 5-hydroxytryptophan, Diencephalon: 214 ± 13
  formation of 5-hydroxytryptophan, Hemispheral (cortical) parts: 48 ± 3
  formation of 5-hydroxytryptophan, Limbic forebrain: 272 ± 20
  formation of 5-hydroxytryptophan, Striatum: 478 ± 10
[2]; non-pretreated rats, s.c.
  effect on brain 5-HT synthesis rate, in words: without any concomitant change in brain 5-HT synthesis rate
[3]; 10 mg/kg s.c.
  Motor activity: 52 ± 5 counts 0-60 min
[3]
  motor response / postsynaptic DA-receptor stimulatory effects: failed to elicit a motor response that differed more than slightly from control values
  antagonism of the reserpine-induced syndrome / behaviour elicited: inability of compound 2 to antagonize the reserpine-induced syndrome
  postsynaptic DA-receptor stimulation: compound 2 is not
[4]; 0.0625 mg/kg s.c.
  Locomotor activity: 146 ± 4 counts 0.30 min
[4]; 0.25 mg/kg s.c.
  Locomotor activity: 117 ± 11 counts 0.30 min
[4]; 1.0 mg/kg s.c.
  Locomotor activity: 82 ± 8 counts 0.30 min
[4]; 4.0 mg/kg s.c.
  Locomotor activity: 62 ± 5 counts 0.30 min
[4]; 16.0 mg/kg s.c.
  Locomotor activity: 63 ± 9 counts 0.30 min
[4]; at about 4 mg/kg s.c., 0-30 min
  maximal decrease of the initial high motor activity from control values: 70%
[4]; s.c.
  effect on locomotor activity, in words: clear and significant dose-dependent decrease of the initial high motor activity; also recorded: No locomotor stimulation is ever seen
[4]; s.c., 0-30 min
  dose at which the maximal effect on motor activity is attained: about 4 mg/kg
[5]
  Dopa-accumulation; ED50, Limbic: 0.67 μmol/kg s.c.
  Dopa-accumulation; ED50, Striatum: 0.80 μmol/kg s.c.
[5]; versus 3-PPP, Dopa accumulation
  potency relative to 3-PPP (times more potent): approximately 5 times
[5]; versus trans-1-CH3-5-OH-DPAT, 5-OH-DPAT, apomorphine, Dopa accumulation
  comparative potency, in words: equipotent to trans-1-CH3 -5-OH-DPAT; also recorded: less potent than 5-OH-DPAT; also recorded: of the same order of potency as apomorphine

## CCCN(CCC)[C@@H]1CCc2c(O)cccc2[C@H]1C (relative stereo) [trans-1-CH35-OHDPAT, trans-1-methyl-5-hydroxy-2-(di-n-propylamino)tetralin]
[3]; 10 mg/kg s.c.
  Motor activity: 406 ± 47 counts 0-60 min
[3]
  motor response / postsynaptic DA-receptor stimulatory effects: strong central postsynaptic DA-receptor stimulatory effects
  antagonism of the reserpine-induced syndrome / behaviour elicited: pronounced stereotyped and hyperactive behaviour
  postsynaptic DA-receptor stimulation: efficient postsynaptic DA-receptor stimulants
[5]
  Dopa-accumulation; ED50, Limbic: 0.66 μmol/kg s.c.
  Dopa-accumulation; ED50, Striatum: 0.73 μmol/kg s.c.

## CCCN(CCC)C1CCc2c(O)cccc2C1(C)C (stereo not drawn) [1,1-di-CH35-OHDPAT, 1,1di-CH35-OH2-(di-n-propylamino) tetralin]
[5]
  Dopa-accumulation; ED50, Limbic (class symbol): I (Inactive. ED50 > 45 μmol/kg.)
  biochemical activity (Dopa accumulation), in words: completely inactive
  Dopa-accumulation; ED50, Striatum (class symbol): I (Inactive. ED50 > 45 μmol/kg.)

## CCCNC1CCc2c(O)cccc2C1(C)C (stereo not drawn) [1,1-di-CH35-OHPAT, 1,1di-CH35-OH2-(n-propylamino)tetralin]
[5]
  Dopa-accumulation; ED50, Limbic (class symbol): I (Inactive. ED50 > 45 μmol/kg.)
  biochemical activity (Dopa accumulation), in words: completely inactive
  Dopa-accumulation; ED50, Striatum (class symbol): I (Inactive. ED50 > 45 μmol/kg.)

## CCCN1CCCC(c2cccc(O)c2)C1 (stereo not drawn) [Compound 3-PPP, 3-(3-hydroxyphenyl)-N-n-propylpiperidine]
[3]; 10 mg/kg s.c.
  Motor activity: 51 ± 19 counts 0-60 min
[3]
  antagonism of the reserpine-induced syndrome / behaviour elicited: inability of compound 2 to antagonize the reserpine-induced syndrome is shared by the selective Da-autoreceptor agonist 3-PPP
[5]
  Dopa-accumulation; ED50, Limbic: 3.6 μmol/kg s.c.
  Dopa-accumulation; ED50, Striatum: 3.6 μmol/kg s.c.

## CCCN(CCC)C1CCc2c(O)cccc2C1 (stereo not drawn) [Compound 5-OHDPAT, 5-hydroxy-2-(di-n-propylamino)tetralin]
[6]; limbic forebrain
  Dopa-accumulation; ED50, Limbic (taken from Hacksell et al., J. Med. Chem. 22, 1469 (1979)): 0.111 μmol/kg s.c.
[6]; striatum
  Dopa-accumulation; ED50, Striatum (taken from Hacksell et al., J. Med. Chem. 22, 1469 (1979)): 0.009 μmol/kg s.c.
[3]; 0.75 mg/kg s.c.
  Motor activity: 620 ± 20 counts 0-60 min
[3]
  motor response / postsynaptic DA-receptor stimulatory effects: strong central postsynaptic DA-receptor stimulatory effects
  antagonism of the reserpine-induced syndrome / behaviour elicited: pronounced stereotyped and hyperactive behaviour
  postsynaptic DA-receptor stimulation: efficient postsynaptic DA-receptor stimulants
[4]; 0.0125 mg/kg s.c.
  Locomotor activity: 84 ± 11 counts 0.30 min
[4]; 0.05 mg/kg s.c.
  Locomotor activity: 380 ± 24 counts 0.30 min
[4]; s.c.
  effect on locomotor activity, in words: lower doses significantly suppressing and higher dosess significantly stimulating the rat locomotor activity
